Tests used:
[1] = tested on: Human immunodeficiency virus 1; test: Antiviral activity against wild-type HIV-1 IIIB infected in human MT4 cells assessed as protection against virus-induced cytopathicity measured after 5 days post-infection by MTT assay; format: functional, organism-based; details: Human immunodeficiency virus 1, IIIB, MT4, 120 h
[2] = Cytotoxicity against human MT4 cells assessed as reduction in cell viability by MTT assay; format: toxicity, cell-based
[3] = Selectivity index, ratio of CC50 for cytotoxicity against human MT4 cells to EC50 for antiviral activity against wild-type HIV-1 IIIB infected in human MT4 cells; format: toxicity, cell-based; details: read-out: Ratio CC50/EC50
[4] = tested on: Human immunodeficiency virus 1; test: Antiviral activity against drug-resistant HIV-1 harboring RT L100I mutant infected in human MT4 cells assessed as protection against virus-induced cytopathicity measured after 5 days post-infection by MTT assay; format: functional, organism-based; details: Human immunodeficiency virus 1, MT4, 120 h
[5] = tested on: Human immunodeficiency virus 1; test: Antiviral activity against drug-resistant HIV-1 harboring RT K103N mutant infected in human MT4 cells assessed as protection against virus-induced cytopathicity measured after 5 days post-infection by MTT assay; format: functional, organism-based; details: Human immunodeficiency virus 1, MT4, 120 h
[6] = tested on: Human immunodeficiency virus 1; test: Antiviral activity against drug-resistant HIV-1 harboring RT Y181C mutant infected in human MT4 cells assessed as protection against virus-induced cytopathicity measured after 5 days post-infection by MTT assay; format: functional, organism-based; details: Human immunodeficiency virus 1, MT4, 120 h
[7] = tested on: Human immunodeficiency virus 1; test: Antiviral activity against drug-resistant HIV-1 harboring RT Y188L mutant infected in human MT4 cells assessed as protection against virus-induced cytopathicity measured after 5 days post-infection by MTT assay; format: functional, organism-based; details: Human immunodeficiency virus 1, MT4, 120 h
[8] = tested on: Human immunodeficiency virus 1; test: Antiviral activity against drug-resistant HIV-1 harboring RT E138K mutant infected in human MT4 cells assessed as protection against virus-induced cytopathicity measured after 5 days post-infection by MTT assay; format: functional, organism-based; details: Human immunodeficiency virus 1, MT4, 120 h
[9] = tested on: Human immunodeficiency virus 1; test: Antiviral activity against drug-resistant HIV-1 harboring RT F227L/V106A mutant infected in human MT4 cells assessed as protection against virus-induced cytopathicity measured after 5 days post-infection by MTT assay; format: functional, organism-based; details: Human immunodeficiency virus 1, MT4, 120 h
[10] = tested on: Human immunodeficiency virus 1; test: Antiviral activity against drug-resistant HIV-1 harboring RT RES056 mutant infected in human MT4 cells assessed as protection against virus-induced cytopathicity measured after 5 days post-infection by MTT assay; format: functional, organism-based; details: Human immunodeficiency virus 1, MT4, 120 h
[11] = target: Human immunodeficiency virus type 1 reverse transcriptase (Human immunodeficiency virus 1, UniProt Q72547); test: Inhibition of recombinant wild type HIV-1 reverse transcriptase incubated for 40 mins in presence of poly(rA) template/oligo(dT)16 primer by Pico-Green dye based analysis

| SMILES | EC50 [1] | CC50 [2] | selectivity ratio [3] | EC50 [4] | EC50 [5] | EC50 [6] | EC50 [7] | EC50 [8] | EC50 [9] | EC50 [10] | IC50 [11] |
| --- | --- | --- | --- | --- | --- | --- | --- | --- | --- | --- | --- |
| [2H]C([2H])([2H])c1cc(C#N)cc(C)c1Oc1nc(NC2CCN(Cc3ccc(S(N)(=O)=O)cc3)CC2)nc2ccsc12 | 0.00577 µM | 178 µM | 31200 | 0.00856 µM | 0.00367 µM | 0.0121 µM | 0.012 µM | 0.0126 µM | 0.00997 µM | 0.217 µM | 0.19 µM |
| [2H]C([2H])([2H])c1cc(C#N)cc(C([2H])([2H])[2H])c1Oc1nc(NC2CCN(Cc3ccc(S(N)(=O)=O)cc3)CC2)nc2sccc12 | 0.00653 µM | > 225 µM | > 34500 | 0.00644 µM | 0.00428 µM | 0.0112 µM | 0.0104 µM | 0.0195 µM | 0.00879 µM | 0.141 µM | 0.16 µM |
| Cc1cc(-c2ccc(C#N)cc2)cc(C)c1Nc1ccnc(Nc2ccc(C#N)cc2)n1 | 0.00186 µM | 6.11 µM | 3280 | 0.00402 µM | 0.00288 µM | 0.00726 µM | 0.0405 µM | 0.00816 µM | 0.796 µM | 0.0543 µM | 0.34 µM |
| [2H]C([2H])([2H])c1cc(C#N)cc(C)c1Oc1nc(NC2CCN(Cc3ccc(C(N)=O)cc3)CC2)nc2sccc12 | 0.00892 µM | > 242 µM | > 27200 | 0.0292 µM | 0.0181 µM | 0.0476 µM | 0.0945 µM | 0.0635 µM | 0.0715 µM | 0.32 µM | 0.12 µM |
| [2H]C([2H])([2H])c1cc(C#N)cc(C)c1Oc1nc(NC2CCN(Cc3ccc(C(N)=O)cc3)CC2)nc2ccsc12 | 0.0128 µM | > 242 µM | > 18900 | 0.0682 µM | 0.0112 µM | 0.0653 µM | 0.0599 µM | 0.0535 µM | 0.0652 µM | 0.887 µM | 0.15 µM |
| [2H]C([2H])([2H])c1cc(C#N)cc(C([2H])([2H])[2H])c1Oc1nc(NC2CCN(Cc3ccc(C(N)=O)cc3)CC2)nc2ccsc12 | 0.00511 µM | > 241 µM | > 47200 | 0.0443 µM | 0.00675 µM | 0.0468 µM | 0.0576 µM | 0.0598 µM | 0.0782 µM | 1.74 µM | 0.14 µM |
| [2H]C([2H])([2H])c1cc(C#N)cc(C([2H])([2H])[2H])c1Oc1nc(NC2CCN(Cc3ccc(C(N)=O)cc3)CC2)nc2sccc12 | 0.00419 µM | > 241 µM | > 57500 | 0.0216 µM | 0.00458 µM | 0.0538 µM | 0.0616 µM | 0.0623 µM | 0.724 µM | 0.496 µM | 0.14 µM |
| [2H]C([2H])([2H])c1cc(C#N)cc(C([2H])([2H])[2H])c1Oc1nc(NC2CCN(Cc3ccc(C(N)=O)cc3)CC2)nc2ccccc12 | 0.00731 µM | 90.2 µM | 12300 | 0.0329 µM | 0.0236 µM | 0.0618 µM | 0.0607 µM | 0.0381 µM | 0.186 µM | 1.39 µM | 0.21 µM |
| Cc1ccnc2c1NC(=O)c1cccnc1N2C1CC1 [NEVIRAPINE] | 0.253 µM | > 15 µM | – | 1.27 µM | 4.71 µM | – | > 15 µM | 0.237 µM | 7.32 µM | > 15 µM | – |
| [2H]C([2H])([2H])c1cc(C#N)cc(C([2H])([2H])[2H])c1Oc1nc(NC2CCN(Cc3ccc(S(N)(=O)=O)cc3)CC2)nc2ccccc12 | 0.00547 µM | 24.3 µM | 4440 | 0.0168 µM | 0.0087 µM | 0.0507 µM | 0.15 µM | 0.0374 µM | 0.0598 µM | 0.276 µM | 0.23 µM |
| [2H]C([2H])([2H])c1cc(C#N)cc(C)c1Oc1nc(NC2CCN(Cc3ccc(S(N)(=O)=O)cc3)CC2)nc2scnc12 | 0.0028 µM | 14.9 µM | 5320 | 0.0109 µM | 0.00439 µM | 0.0101 µM | 0.0455 µM | 0.0281 µM | 0.181 µM | 0.0576 µM | 0.15 µM |
| [2H]C([2H])([2H])c1cc(C#N)cc(C)c1Oc1nc(NC2CCN(Cc3ccc(C(N)=O)cc3)CC2)nc2scnc12 | 0.00203 µM | 22 µM | 10800 | 0.0133 µM | 0.00431 µM | 0.0104 µM | 0.0529 µM | 0.0104 µM | 0.103 µM | 0.143 µM | 0.17 µM |
| O=C1Nc2ccc(Cl)cc2[C@@](C#CC2CC2)(C(F)(F)F)O1 [EFAVIRENZ] | – | > 6.34 µM | – | 0.0418 µM | 0.0992 µM | – | – | 0.00832 µM | 0.203 µM | – | – |
| [2H]C([2H])([2H])c1cc(C#N)cc(C([2H])([2H])[2H])c1Oc1nc(NC2CCN(Cc3ccc(C(N)=O)cc3)CC2)nc2scnc12 | 0.00236 µM | 21.5 µM | 9130 | 0.0128 µM | 0.00279 µM | 0.0116 µM | 0.0521 µM | 0.0113 µM | 0.161 µM | 0.166 µM | 0.16 µM |
| [2H]C([2H])([2H])c1cc(C#N)cc(C)c1Oc1nc(NC2CCN(Cc3ccc(S(N)(=O)=O)cc3)CC2)nc2ccccc12 | 0.00307 µM | > 229 µM | > 74600 | 0.00811 µM | 0.00692 µM | 0.0129 µM | 0.0542 µM | 0.0106 µM | 0.0443 µM | 0.245 µM | 0.21 µM |
| [2H]C([2H])([2H])c1cc(C#N)cc(C)c1Oc1nc(NC2CCN(Cc3ccc(S(N)(=O)=O)cc3)CC2)nc2sccc12 | 0.00639 µM | > 227 µM | > 35500 | 0.0174 µM | 0.00884 µM | 0.0212 µM | 0.0555 µM | 0.0497 µM | 0.428 µM | 0.148 µM | 0.16 µM |
| [2H]C([2H])([2H])c1cc(C#N)cc(C)c1Oc1nc(NC2CCN(Cc3ccc(C(N)=O)cc3)CC2)nc2ccccc12 | 0.0054 µM | 150 µM | 27900 | 0.0145 µM | 0.00486 µM | 0.047 µM | 0.0678 µM | 0.0631 µM | 1.27 µM | 1.81 µM | 0.21 µM |

Reference: ChEMBL document CHEMBL6134848, “Deuteration Strategy-Inspired Design of Novel Diarylpyrimidine Derivatives as Potent Non-Nucleoside Reverse Transcriptase Inhibitors Featuring Improved Efficacy, Selectivity, and Druggability” (J Med Chem, 2025)
